# From patent US20050112573A1, “Method of detecting toxic substance” (priority 2001, published 2005)
# System: yeast genes (level of expressed mRNA)
# Experiment: DNA chip analysis of expressed mRNA of yeast genes after 2 h culture with a toxic chemical substance
# Assay type: cell-based, Saccharomyces cerevisiae S288C
# Method in brief: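 S. cerevisiae S288C in YPD at 25 °C was exposed at log phase for 2 h to a growth-inhibiting, non-lethal concentration of the chemical. Poly(A) mRNA was reverse-transcribed with Cy3- or Cy5-dUTP and hybridized to a whole-genome yeast DNA chip (65 °C, >12 h). Values are fluorescence ratios versus untreated cells.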
substance,measurement,setting,value
Na2As [(1)],The level of expressed mRNA in the presence of chemical substance/,"yeast gene YNL074C, ratio to control without chemical substance, 2 h culture",0.9
same,The level of expressed mRNA in the presence of chemical substance/,"yeast gene YNL092W, ratio to control without chemical substance, 2 h culture",1.3
same,The level of expressed mRNA in the presence of chemical substance/The level of expressed mRNA in the absence of chemical substance,yeast gene YNL093W,2.1
same,The level of expressed mRNA in the presence of chemical substance/,"yeast gene YNL115C, ratio to control without chemical substance, 2 h culture",0.7
same,The level of expressed mRNA in the presence of chemical substance/,"yeast gene YNL156C, ratio to control without chemical substance, 2 h culture",1.1
same,The level of expressed mRNA in the presence of chemical substance/,"yeast gene YNL234W, ratio to control without chemical substance, 2 h culture",1.1
same,The level of expressed mRNA in the presence of chemical substance/,"yeast gene YNL281W, ratio to control without chemical",1.0
same,The level of expressed mRNA in the presence of chemical substance/,"yeast gene YNL305C, ratio to control without chemical",0.9
same,The level of expressed mRNA in the presence of chemical substance/The level of expressed mRNA in the absence of chemical substance,yeast gene YNL333W,1.0
same,The level of expressed mRNA in the presence of chemical substance/The level of expressed mRNA in the absence of chemical substance,yeast gene YNR010W,1.3
same,The level of expressed mRNA in the presence of chemical substance/,"yeast gene YNR068C, ratio to control without chemical",1.2
same,The level of expressed mRNA in the presence of chemical substance/The level of expressed mRNA in the absence of chemical substance,yeast gene YNR069C,1.5
same,The level of expressed mRNA in the presence of chemical substance/in the absence of chemical substance,yeast gene YNR072W,1.1
same,The level of expressed mRNA in the presence of chemical substance/The level of expressed mRNA in the absence of chemical substance,yeast gene YOL013C,0.9
same,The level of expressed mRNA in the presence of chemical substance/,"yeast gene YOL032W, ratio to control without chemical",1.3
same,The level of expressed mRNA in the presence of chemical substance/,"yeast gene YOL036W, ratio to control without chemical",0.8
same,The level of expressed mRNA in the presence of chemical substance/,"yeast gene YOL047C, ratio to control without chemical",1.4
same,The level of expressed mRNA in the presence of chemical substance/,"yeast gene YOL071W, ratio to control without chemical",1.3
same,The level of expressed mRNA in the presence of chemical substance/,"yeast gene YOL082W, ratio to control without chemical",1.0
same,The level of expressed mRNA in the presence of chemical substance/,"yeast gene YOL083W, ratio to control without chemical",1.1
same,The level of expressed mRNA in the presence of chemical substance/in the absence of chemical substance,yeast gene YOL096C,1.1
same,The level of expressed mRNA in the presence of chemical substance/,"yeast gene YOL117W, ratio to control without chemical",1.0
same,The level of expressed mRNA in the presence of chemical substance/,"yeast gene YOL131W, ratio to control without chemical",1.0
same,The level of expressed mRNA in the presence of chemical substance/,"yeast gene YOL150C, ratio to control without chemical substance, 2 h culture",4.1
same,The level of expressed mRNA in the presence of chemical substance/,"yeast gene YOL162W, ratio to control without chemical",2.0
same,The level of expressed mRNA in the presence of chemical substance/The level of expressed mRNA in the absence of chemical substance,yeast gene YOL164W,0.9
same,The level of expressed mRNA in the presence of chemical substance/,"yeast gene YOR019W, ratio to control without chemical",2.9
same,The level of expressed mRNA in the presence of chemical substance/The level of expressed mRNA in the absence of chemical substance,yeast gene YOR036W,1.8
same,The level of expressed mRNA in the presence of chemical substance/The level of expressed mRNA in the absence of chemical substance,yeast gene YOR117W,0.8
same,The level of expressed mRNA in the presence of chemical substance/The level of expressed mRNA in the absence of chemical substance,yeast gene YOR124C,0.6
same,The level of expressed mRNA in the presence of chemical substance/The level of expressed mRNA in the absence of chemical substance,yeast gene YOR132W,0.9
same,The level of expressed mRNA in the presence of chemical substance/The level of expressed mRNA in the absence of chemical substance,yeast gene YOR157C,1.0
same,The level of expressed mRNA in the presence of chemical substance/in the absence of chemical substance,yeast gene YOR180C,0.8
same,The level of expressed mRNA in the presence of chemical substance/The level of expressed mRNA in the absence of chemical substance,yeast gene YOR181W,1.0
same,The level of expressed mRNA in the presence of chemical substance/The level of expressed mRNA in the absence of chemical substance,yeast gene YOR185C,1.1
same,The level of expressed mRNA in the presence of chemical substance/,"yeast gene YOR197W, ratio to control without chemical",0.8
same,The level of expressed mRNA in the presence of chemical substance/The level of expressed mRNA in the absence of chemical substance,yeast gene YOR198C,1.0
same,The level of expressed mRNA in the presence of chemical substance/The level of expressed mRNA in the absence of chemical substance,yeast gene YOR259C,0.8
same,The level of expressed mRNA in the presence of chemical substance/The level of expressed mRNA in the absence of chemical substance,yeast gene YOR261C,1.0
same,The level of expressed mRNA in the presence of chemical substance/The level of expressed mRNA in the absence of chemical substance,yeast gene YOR288C,0.9
same,The level of expressed mRNA in the presence of chemical substance/The level of expressed mRNA in the absence of chemical substance,yeast gene YOR355W,0.7
same,The level of expressed mRNA in the presence of chemical substance/in the absence of chemical substance,yeast gene YOR363C,0.8
same,The level of expressed mRNA in the presence of chemical substance/The level of expressed mRNA in the absence of chemical substance,yeast gene YOR383C,0.9
same,The level of expressed mRNA in the presence of chemical substance/,"yeast gene YPL087W, ratio to control without chemical",1.0
same,The level of expressed mRNA in the presence of chemical substance/The level of expressed mRNA in the absence of chemical substance,yeast gene YPL089C,1.2
same,The level of expressed mRNA in the presence of chemical substance/The level of expressed mRNA in the absence of chemical substance,yeast gene YPL109C,1.1
same,The level of expressed mRNA in the presence of chemical substance/The level of expressed mRNA in the absence of chemical substance,yeast gene YPL149W,1.5
same,The level of expressed mRNA in the presence of chemical substance/The level of expressed mRNA in the absence of chemical substance,yeast gene YPL154C,0.7
same,The level of expressed mRNA in the presence of chemical substance/,"yeast gene YPL196W, ratio to control without chemical",1.3
same,The level of expressed mRNA in the presence of chemical substance/,"yeast gene YPL206C, ratio to control without chemical",1.0
same,The level of expressed mRNA in the presence of chemical substance/,"yeast gene YPL222W, ratio to control without chemical",0.9
same,The level of expressed mRNA in the presence of chemical substance/,"yeast gene YPR023C, ratio to control without chemical",1.2
same,The level of expressed mRNA in the presence of chemical substance/The level of expressed mRNA in the absence of chemical substance,yeast gene YPR103W,0.7
same,The level of expressed mRNA in the presence of chemical substance/The level of expressed mRNA in the absence of chemical substance,yeast gene YPR108W,0.8
same,The level of expressed mRNA in the presence of chemical substance/,"yeast gene YPR151C, ratio to control without chemical",2.3
same,The level of expressed mRNA in the presence of chemical substance/in the absence of chemical substance,yeast gene YPR184W,1.2
